Experimental data from patent US20240239806A1, “COMPOUNDS, COMPOSITIONS AND METHODS OF TREATING DISORDERS” (Chengdu Anticancer Bioscience, Ltd., priority 2021, published 2024).
pEC50, pIC50: −log10 of the molar value. Entries after “also recorded” stand apart in the source; their conditions may differ. Where two headings read alike, the source gives them in different places.

Legend:
NCI-H23 [1] = test: MECP in cancer cell line; assay type: cell-based; conditions: Homo sapiens
Outline: (§1)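 Cancer lines were grown in DMEM with 5% FBS, 2 mM L-glutamine and 1 mM sodium pyruvate at 37 °C, 5% CO2, then exposed to compound from 1 nM to 30 μM. High-content imaging at 24, 48 or 72 h scored mitotic arrest or DNA-content change; values binned A–D.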

[2] = system: cervical cancer cell line Hela; test: Soft agar colony formation assay; assay type: cell-based, human
Excerpt: (§2) Measuring the ability of cells to grow in soft agar has been popularly believed as the gold standard assay for cellular transformation in vitro. In the Soft Agar Assay, cells grow from single cells to cell colonies in a semi-solid agar solution that keeps them away from the solid surface and allows growth in an anchorage-independent way.
(§3) The anchorage-independent growth of cells is one of the hallmarks of cancer cells. Normal epithelial cells are supported by basement membranes that provide survival and proliferative signals while undergo a type of apoptosis called anoikis when lose their attachment to the extracellular matrix. Cancer cells, in contrast, evade detachment-induced apoptosis, leading to uncontrolled proliferation and metastasis. The Soft Agar Colony Formation Assay allows testing of the therapeutic efficacy of compounds against anchorage-independent 3D growth of cancer cells in vin. The assay was performed in 6-well plates with two layers of agar. For the first, 0.75% agar in DMEM medium was melted in a microwave oven and poured to form a bottom layer. Once solidified, 10-100K cells in 1 ml of DMEM containing 0.35% agar was added to form the top layer, which was later covered with 0.5 ml of DMEM. Cell culture medium was changed once every two days until colonies were ready to photograph. We test the antitumor activity of select compounds in soft agar colony formation assays. […] The suppression of growth of these three cancer cell lines in 3D culture is consistent with the potent impact of these compounds on cellular proliferation in 2D culture.

RPEMYC^H2B-GFP cells = test: Phenotypic screening assay (mitotic arrest, polyploidy); assay type: cell-based; conditions: 1 nM to 30 μM; for pIC50: read-out: Proliferative arrest (>50%)
Outline: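 RPE cells expressing MYC and H2B-EGFP treated with compound at 1 nM–30 μM; mitotic index scored at 24 h and polyploidy (DNA content) at 48 h by automated imaging, with reads at 24, 48 or 72 h. Hits show transient mitotic arrest followed by polyploid accumulation.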

NCI-H23 [3] = test: MTT assay of cellular proliferation; assay type: cell-based; conditions: Homo sapiens, 50% inhibition of cellular proliferation
Outline: (§4)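 MTT viability readout, formazan OD 570 nm after 3-4 h dye incubation. Cells seeded 15-24 h to 20-30% confluence, dosed 1 nM-30 μM. DMEM/5% FBS, 37 °C, 5% CO2. EC50 = concentration giving 50% proliferation inhibition.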

HCT116 [4] = test: MTT assay of cellular proliferation; assay type: cell-based; conditions: Homo sapiens, HCT-116, 50% inhibition of cellular proliferation
Outline: as §4

MDA-MB-231 [5] = test: MTT assay of cellular proliferation; assay type: cell-based; conditions: Homo sapiens; MDA-MB-231, MTT, 50% inhibition of cellular proliferation
Outline: as §4

NCI-H460 [6] = test: MTT assay of cellular proliferation; assay type: cell-based; conditions: Homo sapiens, 50% inhibition of cellular proliferation
Outline: as §4

T98G [7] = test: MTT assay of cellular proliferation; assay type: cell-based; conditions: Homo sapiens, 50% inhibition of cellular proliferation
Outline: as §4

Hela [8] = test: MTT assay of cellular proliferation; assay type: cell-based; conditions: Homo sapiens, 50% inhibition of cellular proliferation
Outline: as §4

T2 HCC [9] = test: MTT assay of cellular proliferation; assay type: cell-based; conditions: Mus musculus, 50% inhibition of cellular proliferation
Outline: as §4

NCI-H596 [10] = test: MTT assay of cellular proliferation; assay type: cell-based; conditions: Homo sapiens, 50% inhibition of cellular proliferation
Outline: as §4

Human Cancer Cells = test: Anchorage-independent growth in 3D culture (FIG. 3); assay type: cell-based; conditions: FIG. 3 legend, cell line not named
Excerpt: as §2, §3

HCT116 [11] = test: MECP in cancer cell line; assay type: cell-based; conditions: Homo sapiens, HCT-116
Outline: as §1

MDA-MB-231 [12] = test: MECP in cancer cell line; assay type: cell-based; conditions: Homo sapiens
Outline: as §1

NCI-H460 [13] = test: MECP in cancer cell line; assay type: cell-based; conditions: Homo sapiens
Outline: as §1

T98G [14] = test: MECP in cancer cell line; assay type: cell-based; conditions: Homo sapiens
Outline: as §1

Hela [15] = test: MECP in cancer cell line; assay type: cell-based; conditions: Homo sapiens
Outline: as §1

T2 HCC [16] = test: MECP in cancer cell line; assay type: cell-based; conditions: Mus musculus
Outline: as §1

NCI-H596 [17] = test: MECP in cancer cell line; assay type: cell-based; conditions: Homo sapiens
Outline: as §1

NCI-N87 [18] = test: MECP in cancer cell line; assay type: cell-based; conditions: Homo sapiens
Outline: as §1

[19] = system: human breast cancer cell line MDA-MB-231; test: Xenograft assay; assay type: in vivo; conditions: MDA-MB-231 xenograft, Nu/Nu mice, 25 mg/kg oral gavage twice a day for 7 days
Experimental: (§5) Xenografts were initiated in immunocompromised (Nu/Nu) mice with the human lung adenocarcinoma cell line NCI-H23 (FIG. 4A) and the human breast cancer cell line MDA-MB-231 (FIG. 4B). Seven million cells were injected subcutaneously into each mouse and treatment was initiated when the average tumor volumes reached 150 mm3 (n=5/group). Tumor-bearing mice were randomized into different groups to receive either vehicle or indicated compounds. The compounds were administered through oral gavage twice a day for 7 days. For these experiments, all compounds were first dissolved in DMSO and then diluted 1:10 into a mixture containing 50% PEG300 and 49% PBS, 1% Tween 80, pH2.2. 100 ul of drug solution was administered with each dose to each a dose of 25 mg/kg. Tumor volumes were determined from digital caliper raw data by using the formula: Volume (mm3)=(L×W^2)/2. The value W (Width) is the smaller of two perpendicular tumor axes and the value L (Length) is the larger of two perpendicular axes. Mean tumor volumes were calculated for each treatment group at the start point (day 0) and the endpoint (day 7). The percentage change of tumor volumes, defined as (Tumor […]˜Tumor Volume^day0)/Tumor Volume^day0×100% is presented.

[20] = system: human lung adenocarcinoma cell line NCI-H23; test: Xenograft assay; assay type: in vivo; conditions: Nu/Nu mice, 25 mg/kg oral gavage twice a day for 7 days
Experimental: as §5

NCI-N87 [21] = test: MTT assay of cellular proliferation; assay type: cell-based; conditions: Homo sapiens, 50% inhibition of cellular proliferation
Outline: as §4

SW480 [22] = test: MTT assay of cellular proliferation; assay type: cell-based; conditions: Homo sapiens, 50% inhibition of cellular proliferation
Outline: as §4

A549 [23] = test: MTT assay of cellular proliferation; assay type: cell-based; conditions: Homo sapiens, 50% inhibition of cellular proliferation
Outline: as §4

SW480 [24] = test: MECP in cancer cell line; assay type: cell-based; conditions: Homo sapiens
Outline: as §1

A549 [25] = test: MECP in cancer cell line; assay type: cell-based; conditions: Homo sapiens
Outline: as §1

[26] = read-out: Min. Effective conc. for Polyploidy (≥5%)

Row | SMILES | minimal effective concentration (NCI-H23 [1]) [µM] | minimal effective concentration (RPEMYC^H2B-GFP cells; [26]) [µM] | minimal effective concentration (RPEMYC^H2B-GFP cells; read-out: Mitotic Arrest (≥5%)) [µM] | pIC50 (RPEMYC^H2B-GFP cells) | pEC50 (NCI-H23 [3]) | pEC50 (HCT116 [4]) | pEC50 (MDA-MB-231 [5]) | pEC50 (Hela [8]) | pEC50 (T2 HCC [9]) | minimal effective concentration (HCT116 [11]) [µM] | minimal effective concentration (MDA-MB-231 [12]) [µM] | minimal effective concentration (Hela [15]) [µM] | minimal effective concentration (T2 HCC [16]) [µM] | minimal effective concentration (NCI-N87 [18]) [µM] | tumor growth (percentage change of tumor volumes) [19] | tumor growth (percentage change of tumor volumes) [20] | pEC50 (NCI-N87 [21]) | pEC50 (SW480 [22]) | pEC50 (A549 [23]) | minimal effective concentration (SW480 [24]) [µM] | other results
1 | COC(=O)c1cc(Oc2ccnc3ccccc23)cc(C(=O)OC)c1 [Compound 15, dimethyl 5-(quinolin-4-yloxy)isophthalate] | 0.001 to 1 | 0.001 to 1 | 0.001 to 1 | 6.00 to 9.00 | 6.00 to 9.00 | 6.00 to 9.00 | 6.00 to 9.00 | 6.00 to 9.00 | 6.00 to 9.00 | 0.001 to 1 | 0.001 to 1 | 0.001 to 1 | 0.001 to 1 | – | – | – | – | – | – | – | anchorage-independent growth in soft agar [2]: effectively suppressed the anchorage-independent growth; pEC50 (NCI-H460 [6]): < 4.52; pEC50 (T98G [7]): 5.00 to 6.00; pEC50 (NCI-H596 [10]): 5.00 to 6.00; Anchorage-independent Growth of Human Cancer Cells in 3D Culture (Human Cancer Cells): Suppress the Anchorage-independent Growth; minimal effective concentration (NCI-H460 [13]): 1 to 10 µM; minimal effective concentration (T98G [14]): 1 to 10 µM; minimal effective concentration (NCI-H596 [17]): 0.001 to 1 µM
2 | COc1cc(Oc2ccnc3ccc(Br)cc23)cc(-n2cccn2)c1 [Compound 21, 6-bromo-4-(3-methoxy-5-(1H-pyrazol-1-yl)phenoxy)quinoline] | 0.001 to 1 | 0.001 to 1 | 0.001 to 1 | 6.00 to 9.00 | 6.00 to 9.00 | 6.00 to 9.00 | 6.00 to 9.00 | 6.00 to 9.00 | 6.00 to 9.00 | 0.001 to 1 | 0.001 to 1 | 0.001 to 1 | 0.001 to 1 | 0.001 to 1 | suppress the growth; also recorded: suppressing the tumor growth | suppress the growth; also recorded: suppressing the tumor growth | 6.00 to 9.00 | 6.00 to 9.00 | 6.00 to 9.00 | 0.001 to 1 | minimal effective concentration (A549 [25]): 0.001 to 1 µM
3 | COc1cc(Oc2ccnc3cc(OC)c(OC)cc23)cc(-n2cccn2)c1 [Compound 26, 6,7-dimethoxy-4-(3-methoxy-5-(1H-pyrazol-1-yl)phenoxy)quinoline] | 0.001 to 1 | 0.001 to 1 | 0.001 to 1 | 6.00 to 9.00 | 6.00 to 9.00 | 6.00 to 9.00 | 6.00 to 9.00 | 6.00 to 9.00 | 6.00 to 9.00 | 0.001 to 1 | 0.001 to 1 | 0.001 to 1 | 0.001 to 1 | 0.001 to 1 | suppress the growth; also recorded: suppressing the tumor growth | suppress the growth; also recorded: suppressing the tumor growth | 6.00 to 9.00 | 6.00 to 9.00 | 6.00 to 9.00 | 0.001 to 1 | minimal effective concentration (A549 [25]): 0.001 to 1 µM
4 | COc1cc(Oc2ccnc3ccsc23)cc(-n2cccn2)c1 [Compound 40, 7-(3-methoxy-5-(1H-pyrazol-1-yl)phenoxy)thieno[3,2-b]pyridine] | 0.001 to 1 | 0.001 to 1 | 0.001 to 1 | 6.00 to 9.00 | 6.00 to 9.00 | 6.00 to 9.00 | 6.00 to 9.00 | 6.00 to 9.00 | 6.00 to 9.00 | 0.001 to 1 | 0.001 to 1 | 0.001 to 1 | 0.001 to 1 | 0.001 to 1 | suppress the growth; also recorded: suppressing the tumor growth | suppress the growth; also recorded: suppressing the tumor growth | 6.00 to 9.00 | 6.00 to 9.00 | 6.00 to 9.00 | 0.001 to 1 | minimal effective concentration (A549 [25]): 0.001 to 1 µM
5 | COc1cc(NC(C)=O)cc(Oc2ccnc3ccsc23)c1 [Compound 43, N-(3-methoxy-5-(thieno[3,2-b]pyridin-7-yloxy)phenyl)acetamide] | 0.001 to 1 | 0.001 to 1 | 0.001 to 1 | 6.00 to 9.00 | 6.00 to 9.00 | 6.00 to 9.00 | 6.00 to 9.00 | 6.00 to 9.00 | 6.00 to 9.00 | 0.001 to 1 | 0.001 to 1 | 0.001 to 1 | 0.001 to 1 | 0.001 to 1 | suppress the growth; also recorded: suppressing the tumor growth and even eliciting tumor regression | suppress the growth; also recorded: suppressing the tumor growth and even eliciting tumor regression | 6.00 to 9.00 | 6.00 to 9.00 | 6.00 to 9.00 | 0.001 to 1 | minimal effective concentration (A549 [25]): 0.001 to 1 µM
